Test results reported in ChEMBL document CHEMBL4673232, “Optimization of a series of potent, selective and orally bioavailable SYK inhibitors” (Bioorg Med Chem Lett, 2020).
In brackets after ≈: the same amount, converted by molar mass.

Assays:
[1] = Lipophilicity, logD of compound; format: physicochemical; settings: octanol/water
[2] = Metabolic stability in human liver microsomes assessed as intrinsic clearance; format: ADME, Microsome; settings: read-out: CLH
[3] = Metabolic stability in rat hepatocyte assessed as intrinsic clearance; format: ADME, tissue-based; settings: hepatocytes
[4] = Dissociation constant, pKa of the compound; format: physicochemical
[5] = Clearance for unbound fraction in CD-1 mouse at 0.5 mg/kg, iv or 1 mg/kg, po; format: ADME, organism-based; settings: in vivo
[6] = Apparent permeability of the compound across apical to basolateral side in human Caco-2 cells at pH 6.5; format: ADME, cell-based; settings: Caco-2, pH 6.5
[7] = mouse, hepatocytes
[8] = Unbound clearance in Han Wistar rat at 0.5 mg/kg, iv or 1 mg/kg, po; format: ADME, organism-based; settings: in vivo
[9] = Solubility of compound; format: physicochemical
[10] = Clearance in CD-1 mouse at 0.5 mg/kg, iv or 1 mg/kg, po; format: ADME, organism-based; settings: in vivo
[11] = Volume of distribution at steady state in Han Wistar rat at 0.5 mg/kg, iv or 1 mg/kg, po; format: ADME, organism-based; settings: in vivo, read-out: Vdss
[12] = Volume of distribution at steady state in CD-1 mouse at 0.5 mg/kg, iv or 1 mg/kg, po; format: ADME, organism-based; settings: in vivo, read-out: Vdss
[13] = Oral bioavailability in Han Wistar rat at 1 mg/kg; format: ADME, organism-based; settings: in vivo
[14] = Clearance in Han Wistar rat at 0.5 mg/kg, iv or 1 mg/kg, po; format: ADME, organism-based; settings: in vivo
[15] = Oral bioavailability in CD-1 mouse at 1 mg/kg; format: ADME, organism-based; settings: in vivo
[16] = Metabolic stability in human hepatocyte assessed as intrinsic clearance; format: ADME, tissue-based; settings: hepatocytes

Row | logD [1] | microsomal CLint [2] | CLH [3] | Compound | further results
1 | 3.2 | – | 186 µL/min | COC(=O)c1nn(C)c2c(C)cc(Nc3nccc(-c4cc(CN(C)C)n(C)n4)n3)cc12 | –
2 | 2.8 | 84 µL/min/mg | 34 µL/min | CNC(=O)c1nn(C)c2ccc(Nc3nccc(-n4cc(CN(C)C)c(F)n4)n3)cc12 | –
3 | 2.3 | 103 µL/min/mg | 21 µL/min | CNC(=O)c1nn(C)c2ccc(Nc3nccc(-n4cc(CN(C)C)c(OC)n4)n3)cc12 | –
4 | 2.2 | 93 µL/min/mg | 51 µL/min | CNC(=O)c1nn(C)c2ccc(Nc3nccc(-c4cc(CN(C)C)n(C)n4)n3)cc12 | pKa [4]: 7.3
5 | 2.3 | 32 µL/min/mg | 49 µL/min | CNC(=O)c1nn(C)c2c(C)cc(Nc3nccc(-n4cc(CN(C)C)cn4)n3)cc12 | –
6 | 2.6 | – | 14 µL/min | Cc1nnc(-c2nn(C)c3ccc(Nc4nccc(-c5cc(CN(C)C)n(C)n5)n4)cc23)o1 | –
7 | 1.8 | 52 µL/min/mg | 31 µL/min | CNC(=O)c1nn(C)c2ccc(Nc3nccc(-n4cc(CN(C)C)cn4)n3)cc12 | CL free [8]: 250 mL/min/kg; solubility [9]: 909 µM (≈ 369 µg/mL); Vd [11]: 1.1 L/kg; bioavailability [13]: 60%; clearance [14]: 8 mL/min/kg; CLH [16]: 21 µL/min
8 | 2.6 | 106 µL/min/mg | 64 µL/min | CNC(=O)c1nn(C)c2c(C)cc(Nc3nccc(-c4cc(CN(C)C)n(C)n4)n3)cc12 | –

Second part, the compound before the results:

Row | Compound | logD [1] | microsomal CLint [2] | CLH [3] | further results
9 | Cc1nn(-c2ccnc(Nc3ccc4c(c3)c(Cl)c(C)n4C)n2)cc1CN1CC(O)C1 | 3.9 | 49 µL/min/mg | 66 µL/min | –
10 | Cc1nnc(-c2nc(C)n3ccc(Nc4nccc(-c5cc(CN(C)C)n(C)n5)n4)cc23)o1 | 2.4 | 40 µL/min/mg | 12 µL/min | pKa [4]: 7.2; CL free [5]: 955 mL/min/kg; Papp A→B [6]: 6.5 ×10⁻⁶ cm/s; CLH [7]: 44 µL/min; CL free [8]: 787 mL/min/kg; solubility [9]: 97 µM (≈ 43.1 µg/mL); clearance [10]: 255 mL/min/kg; Vd [11]: 11 L/kg; Vd [12]: 8 L/kg; bioavailability [13]: 5%; clearance [14]: 189 mL/min/kg; bioavailability [15]: 7%; CLH [16]: 1.9 µL/min
11 | CNC(=O)c1ncn2ccc(Nc3nccc(-n4cc(CN(C)C)cn4)n3)cc12 | 1.4 | 9 µL/min/mg | 34 µL/min | –
12 | CNC(=O)c1nn(C)c2ccc(Nc3nccc(-n4cc(CN5CC(O)C5)c(C)n4)n3)cc12 | 1.9 | 78 µL/min/mg | 19 µL/min | pKa [4]: 8.6
13 | CNC(=O)c1nc(C)n2ccc(Nc3nccc(-n4cc([C@@H]5C[C@H](O)CN5C)cn4)n3)cc12 | 2 | 110 µL/min/mg | 17 µL/min | pKa [4]: 7.9
14 | CNC(=O)c1nc(C)n2ccc(Nc3nccc(-n4cc([C@@H]5C[C@@H](F)CN5C)cn4)n3)cc12 | – | 278 µL/min/mg | 31 µL/min | –
15 | CN(C)Cc1cnn(-c2ccnc(Nc3ccc4c(c3)c(C(=O)N(C)C)nn4C)n2)c1 | 1.7 | 43 µL/min/mg | 33 µL/min | –
